Data set [1] concerns the target methyl halide transferase (Batis maritima, UniProt Q9ZSZ7). To be noted: halide ion as substrate; Attieh et al. 1995, Ni and Hager 1999; cited from earlier work.
Another data set deals with RAD50Δ mutant. The data set is classed as cell-based, Saccharomyces cerevisiae. As to conditions: RAD50Δ mutant compared with W303a. The text has this: (§1) FIG. 11A-D: Methyl iodide production in recombinant S. cerevisiae. FIG. 11A. CH3I production pathway. The B. maritima MHT is expressed with a N-terminal vacuole targeting tag. The […] MHT methylates iodide ions using SAM as a methyl donor. FIG. 11B, CH3I measured in culture headspace over time. Activity on glucose-grown cells is shown. FIG. 11C, CH3I yields in grams per liter of culture per day. Values for the culturable red algae E. muricata are taken from the literature. Yields from B. maritima MHT-expressing E. coli and S. cerevisiae are calculated by comparison to standard curves. FIG. 11D, CH3I toxicity in yeast. Exponential phase cultures were diluted to an OD600 of 0.05 and commercially available CH3I was added. OD600 was measured at 24 hours of growth. The W303a lab strain is shown in filled boxes, the DNA methylation-sensitive RAD50Δ mutant is shown in open boxes.
(§2) Individual colonies were inoculated in YP media with 2% glucose and grown overnight. Cultures were diluted to an OD600 of 0.05 and methyl iodide was added to the specified amount. […] OD600 was measured by spectrometry with YP media used as a blank. Each data point was performed in triplicate. The RAD50Δ mutant was obtained from the Saccharomyces Genome Deletion Project (Invitrogen).

In a further data set the test system is S. cerevisiae W303a. Briefly: Methyl iodide toxicity assay in yeast. The data set is classed as cell-based, Saccharomyces cerevisiae. To be noted: OD600 at 24 hours of growth, commercially available CH3I added.
From the text: as §1, §2

The structures appear in SMILES notation.

methyl halide transferase, sequence (Q9ZSZ7 1-230): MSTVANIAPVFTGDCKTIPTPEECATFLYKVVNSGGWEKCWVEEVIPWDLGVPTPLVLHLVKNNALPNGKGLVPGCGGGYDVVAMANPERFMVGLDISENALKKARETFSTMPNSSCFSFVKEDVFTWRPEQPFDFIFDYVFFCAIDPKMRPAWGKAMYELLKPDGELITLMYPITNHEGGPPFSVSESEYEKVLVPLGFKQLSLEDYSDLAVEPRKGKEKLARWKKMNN

As to `[Br-].[K+]` [Br^−, bromide], the Km in data set [1] was 18.5 mM.
For the molecule `I` [I^−, iodide], the Km in data set [1] is 8.5 mM.
Regarding `CI` [methyl iodide], the “sensitivity to methyl iodide” value in the data set with RAD50Δ mutant was “increased sensitivity”. The “level up to which yeast were resistant to deleterious methylating effects of methyl iodide” value in the data set with S. cerevisiae W303a is over 5000 µg/mL.
